# Experimental data: ChEMBL document CHEMBL3885881, “DrugMatrix”
# Organism: Rattus norvegicus
# Test: DrugMatrix - Regimen: Daily Repeat
# Type: toxicity, organism-based, Sprague-Dawley
# Set-up: regimen Daily Repeat, gender Male, age 6-8 weeks
# Conditions: in vivo, po, route oral GAVAGE, vehicle 100 % WATER; for ABSOLUTE BASOPHIL / ABSOLUTE EOSINOPHIL / ABSOLUTE LYMPHOCYTE / ABSOLUTE MONOCYTE / ABSOLUTE SEGMENTED NEUTROPHIL / BASOPHIL / EOSINOPHIL / ERYTHROCYTE COUNT / HEMATOCRIT / HEMOGLOBIN / LEUKOCYTE COUNT / LYMPHOCYTE / MEAN CORPUSCULAR HEMOGLOBIN / MEAN CORPUSCULAR HEMOGLOBIN CONCENTRATION / MEAN CORPUSCULAR VOLUME / MONOCYTE / NEUTROPHIL / NUCLEATED RED BLOOD CELLS / PLATELET COUNT: tissue Blood; for ALANINE AMINOTRANSFERASE / ALBUMIN / ALKALINE PHOSPHATASE / ASPARTATE AMINOTRANSFERASE / BLOOD UREA NITROGEN / CARBON DIOXIDE / CHLORIDE / CHOLESTEROL / CREATINE PHOSPHOKINASE / CREATININE / GLUCOSE / LACTATE DEHYDROGENASE / LIPASE / PHOSPHORUS / POTASSIUM / SODIUM / TOTAL BILIRUBIN / TOTAL PROTEIN / URIC ACID: tissue Plasma
# [1] = 17 mg/kg, 72 h, dose level High, time 3 day
# [2] = 17 mg/kg, 120 h, dose level High, time 5 day
# [3] = […], 72 h, dose 1.7 mg/Kg, dose level Low, time 3 day
# [4] = […], 120 h, dose 1.7 mg/Kg, dose level Low, time 5 day
smiles,measurement,setting,value
COP(=O)(OC)OC=C(Cl)Cl [DICHLORVOS],ABSOLUTE BASOPHIL,[1],0 CELLS/uL
same,ABSOLUTE EOSINOPHIL,[1],43.33 CELLS/uL
same,ABSOLUTE LYMPHOCYTE,[1],12252 CELLS/uL
same,ABSOLUTE MONOCYTE,[1],527.33 CELLS/uL
same,ABSOLUTE SEGMENTED NEUTROPHIL,[1],1577.33 CELLS/uL
same,BASOPHIL,[1],0%
same,EOSINOPHIL,[1],0.33%
same,ERYTHROCYTE COUNT,[1],5.59 x10E6/uL
same,HEMATOCRIT,[1],34.9%
same,HEMOGLOBIN,[1],13.5 G/DL
same,LEUKOCYTE COUNT,[1],14.4 x10E3/uL
same,LYMPHOCYTE,[1],85%
same,MEAN CORPUSCULAR HEMOGLOBIN,[1],24.17 pg
same,MEAN CORPUSCULAR HEMOGLOBIN CONCENTRATION,[1],38.7 G/DL
same,MEAN CORPUSCULAR VOLUME,[1],62.53 fL
same,MONOCYTE,[1],3.67%
same,NEUTROPHIL,[1],11%
same,NUCLEATED RED BLOOD CELLS,[1],0 /100WBC
same,PLATELET COUNT,[1],1225.67 x10E3/uL
same,ALANINE AMINOTRANSFERASE,[1],49.67 u/L
same,ALBUMIN,[1],4 G/DL
same,ALKALINE PHOSPHATASE,[1],370.33 u/L
same,ASPARTATE AMINOTRANSFERASE,[1],92 u/L
same,BLOOD UREA NITROGEN,[1],17.67 mg/dL
same,CARBON DIOXIDE,[1],27 mmol/L
same,CHLORIDE,[1],104.33 MEQ/L
same,CHOLESTEROL,[1],63.67 mg/dL
same,CREATINE PHOSPHOKINASE,[1],448 u/L
same,CREATININE,[1],0.2 mg/dL
same,GLUCOSE,[1],141 mg/dL
same,LACTATE DEHYDROGENASE,[1],444.33 u/L
same,LIPASE,[1],8.33 u/L
same,PHOSPHORUS,[1],12.67 mg/dL
same,POTASSIUM,[1],6.46 MEQ/L
same,SODIUM,[1],145.9 MEQ/L
same,TOTAL BILIRUBIN,[1],0.2 mg/dL
same,TOTAL PROTEIN,[1],5.77 G/DL
same,URIC ACID,[1],1.23 mg/dL
same,ABSOLUTE BASOPHIL,[2],0 CELLS/uL
same,ABSOLUTE EOSINOPHIL,[2],213.33 CELLS/uL
same,ABSOLUTE LYMPHOCYTE,[2],13980 CELLS/uL
same,ABSOLUTE MONOCYTE,[2],329.33 CELLS/uL
same,ABSOLUTE SEGMENTED NEUTROPHIL,[2],1944 CELLS/uL
same,BASOPHIL,[2],0%
same,EOSINOPHIL,[2],1.33%
same,ERYTHROCYTE COUNT,[2],5.69 x10E6/uL
same,HEMATOCRIT,[2],34.17%
same,HEMOGLOBIN,[2],13.03 G/DL
same,LEUKOCYTE COUNT,[2],16.47 x10E3/uL
same,LYMPHOCYTE,[2],85%
same,MEAN CORPUSCULAR HEMOGLOBIN,[2],22.9 pg
same,MEAN CORPUSCULAR HEMOGLOBIN CONCENTRATION,[2],38.13 G/DL
same,MEAN CORPUSCULAR VOLUME,[2],60.07 fL
same,MONOCYTE,[2],2%
same,NEUTROPHIL,[2],11.67%
same,NUCLEATED RED BLOOD CELLS,[2],0 /100WBC
same,PLATELET COUNT,[2],1272.67 x10E3/uL
same,ALANINE AMINOTRANSFERASE,[2],46 u/L
same,ALBUMIN,[2],4.23 G/DL
same,ALKALINE PHOSPHATASE,[2],289.33 u/L
same,ASPARTATE AMINOTRANSFERASE,[2],91 u/L
same,BLOOD UREA NITROGEN,[2],19.33 mg/dL
same,CARBON DIOXIDE,[2],24.67 mmol/L
same,CHLORIDE,[2],105.33 MEQ/L
same,CHOLESTEROL,[2],60.33 mg/dL
same,CREATINE PHOSPHOKINASE,[2],609.33 u/L
same,CREATININE,[2],0.22 mg/dL
same,GLUCOSE,[2],167.33 mg/dL
same,LACTATE DEHYDROGENASE,[2],458 u/L
same,LIPASE,[2],8.33 u/L
same,PHOSPHORUS,[2],12.8 mg/dL
same,POTASSIUM,[2],5.47 MEQ/L
same,SODIUM,[2],146.93 MEQ/L
same,TOTAL BILIRUBIN,[2],0.13 mg/dL
same,TOTAL PROTEIN,[2],5.8 G/DL
same,URIC ACID,[2],1.37 mg/dL
same,ABSOLUTE BASOPHIL,[3],0 CELLS/uL
same,ABSOLUTE EOSINOPHIL,[3],0 CELLS/uL
same,ABSOLUTE LYMPHOCYTE,[3],12487 CELLS/uL
same,ABSOLUTE MONOCYTE,[3],388 CELLS/uL
same,ABSOLUTE SEGMENTED NEUTROPHIL,[3],1291.67 CELLS/uL
same,BASOPHIL,[3],0%
same,EOSINOPHIL,[3],0%
same,ERYTHROCYTE COUNT,[3],6.29 x10E6/uL
same,HEMATOCRIT,[3],38.27%
same,HEMOGLOBIN,[3],14.27 G/DL
same,LEUKOCYTE COUNT,[3],14.17 x10E3/uL
same,LYMPHOCYTE,[3],88.33%
same,MEAN CORPUSCULAR HEMOGLOBIN,[3],22.67 pg
same,MEAN CORPUSCULAR HEMOGLOBIN CONCENTRATION,[3],37.3 G/DL
same,MEAN CORPUSCULAR VOLUME,[3],60.77 fL
same,MONOCYTE,[3],2.67%
same,NEUTROPHIL,[3],9%
same,NUCLEATED RED BLOOD CELLS,[3],0 /100WBC
same,PLATELET COUNT,[3],1299 x10E3/uL
same,ALANINE AMINOTRANSFERASE,[3],50 u/L
same,ALBUMIN,[3],4.4 G/DL
same,ALKALINE PHOSPHATASE,[3],363 u/L
same,ASPARTATE AMINOTRANSFERASE,[3],81.33 u/L
same,BLOOD UREA NITROGEN,[3],14.67 mg/dL
same,CARBON DIOXIDE,[3],23 mmol/L
same,CHLORIDE,[3],104 MEQ/L
same,CHOLESTEROL,[3],85.67 mg/dL
same,CREATINE PHOSPHOKINASE,[3],178 u/L
same,CREATININE,[3],0.19 mg/dL
same,GLUCOSE,[3],178.67 mg/dL
same,LACTATE DEHYDROGENASE,[3],95.67 u/L
same,LIPASE,[3],9.33 u/L
same,PHOSPHORUS,[3],13.57 mg/dL
same,POTASSIUM,[3],6.76 MEQ/L
same,SODIUM,[3],146.43 MEQ/L
same,TOTAL BILIRUBIN,[3],0.23 mg/dL
same,TOTAL PROTEIN,[3],6.37 G/DL
same,URIC ACID,[3],3.2 mg/dL
same,ABSOLUTE BASOPHIL,[4],0 CELLS/uL
same,ABSOLUTE EOSINOPHIL,[4],131 CELLS/uL
same,ABSOLUTE LYMPHOCYTE,[4],11771.67 CELLS/uL
same,ABSOLUTE MONOCYTE,[4],175 CELLS/uL
same,ABSOLUTE SEGMENTED NEUTROPHIL,[4],1055.67 CELLS/uL
same,BASOPHIL,[4],0%
same,EOSINOPHIL,[4],1%
same,ERYTHROCYTE COUNT,[4],5.65 x10E6/uL
same,HEMATOCRIT,[4],34.67%
same,HEMOGLOBIN,[4],13 G/DL
same,LEUKOCYTE COUNT,[4],13.13 x10E3/uL
same,LYMPHOCYTE,[4],89.67%
same,MEAN CORPUSCULAR HEMOGLOBIN,[4],22.97 pg
same,MEAN CORPUSCULAR HEMOGLOBIN CONCENTRATION,[4],37.5 G/DL
same,MEAN CORPUSCULAR VOLUME,[4],61.37 fL
same,MONOCYTE,[4],1.33%
same,NEUTROPHIL,[4],8%
same,NUCLEATED RED BLOOD CELLS,[4],0 /100WBC
same,PLATELET COUNT,[4],1220 x10E3/uL
same,ALANINE AMINOTRANSFERASE,[4],47.67 u/L
same,ALBUMIN,[4],4.2 G/DL
same,ALKALINE PHOSPHATASE,[4],278 u/L
same,ASPARTATE AMINOTRANSFERASE,[4],83.67 u/L
same,BLOOD UREA NITROGEN,[4],18.33 mg/dL
same,CARBON DIOXIDE,[4],25.67 mmol/L
same,CHLORIDE,[4],106.67 MEQ/L
same,CHOLESTEROL,[4],68.33 mg/dL
same,CREATINE PHOSPHOKINASE,[4],322.33 u/L
same,CREATININE,[4],0.19 mg/dL
same,GLUCOSE,[4],144.33 mg/dL
same,LACTATE DEHYDROGENASE,[4],436.33 u/L
same,LIPASE,[4],8.67 u/L
same,PHOSPHORUS,[4],11.6 mg/dL
same,POTASSIUM,[4],6.06 MEQ/L
same,SODIUM,[4],146.23 MEQ/L
same,TOTAL BILIRUBIN,[4],0.2 mg/dL
same,TOTAL PROTEIN,[4],5.9 G/DL
same,URIC ACID,[4],1.03 mg/dL
